Laboratory results taken from PubChem BioAssay (NCI).
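Growth conditions: 96-well plates. Treatment: test compound, 48 hours, 5 concentrations. Analysis: linear interpolation between bracketing concentrations; unreached endpoints set to highest concentration. At the TGI there is no net growth.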

Columns and labels:
Experiment in all cases: NCI anticancer screen, dose series, 48 h
[1] = test system: CCRF-CEM leukemia
[2] = test system: A549 NSCLC
[3] = test system: NCI-H460 lung
[4] = test system: NCI-H522 lung
[5] = test system: MCF7 breast
[6] = test system: HL-60(TB) leukemia
[7] = test system: OVCAR-5 ovarian
[8] = test system: COLO 205 colon
[9] = test system: OVCAR-8 ovarian
[10] = test system: KM12 colon
[11] = test system: NCI-H23 lung
[12] = test system: OVCAR-3 ovarian
[13] = test system: SK-OV-3 ovarian
[14] = test system: PC-3 prostate
[15] = test system: SR leukemia
[16] = test system: HCT-116 colon
[17] = test system: HT29 colon
[18] = test system: NCI-H226 lung
[19] = test system: SW-620 colon
[20] = test system: A498 renal
[21] = test system: SF-295 CNS
[22] = test system: OVCAR-4 ovarian
[23] = test system: RPMI-8226 leukemia
[24] = test system: SK-MEL-28 melanoma
[25] = test system: SK-MEL-2 melanoma
[26] = test system: LOX IMVI melanoma
[27] = test system: K-562 leukemia
[28] = test system: T-47D breast
[29] = test system: SNB-19 CNS
[30] = test system: DU-145 prostate
[31] = test system: M14 melanoma
[32] = test system: TK-10 renal
[33] = test system: HCC-2998 colon
[34] = test system: MDA-MB-231 breast
[35] = test system: NCI/ADR-RES ovarian
[36] = test system: MALME-3M melanoma
[37] = test system: EKVX NSCLC
[38] = test system: SK-MEL-5 melanoma
[39] = test system: CAKI-1 renal
[40] = test system: MDA-MB-435
[41] = test system: SF-268 CNS
[42] = test system: SNB-75 CNS
[43] = test system: HOP-62 NSCLC
[44] = test system: SN12C renal
[45] = test system: HCT-15 colon
[46] = test system: MOLT-4 leukemia
[47] = test system: ACHN renal
[48] = test system: HS 578T breast
[49] = test system: UACC-257 melanoma
[50] = test system: UO-31 renal
[51] = test system: 786-0 renal
[52] = test system: MDA-N
[53] = test system: SF-539 CNS
[54] = test system: UACC-62 melanoma
[55] = test system: RXF 393 renal
[56] = test system: IGROV1 ovarian
[57] = test system: U251 CNS

Cc1c(/C=N/NC(=S)Nc2ccc(Cl)cc2)c(=O)n(-c2ccccc2)n1C
TGI [1]: > 100 µM | TGI [2]: > 95.9 µM | TGI [3]: > 61 µM | TGI [4]: 22.4 µM | TGI [5]: > 54.9 µM | TGI [6]: > 100 µM | TGI [7]: > 100 µM | TGI [8]: > 100 µM | TGI [9]: > 60.6 µM | TGI [10]: 99.4 µM | TGI [11]: 54.5 µM | TGI [12]: > 65.3 µM | TGI [13]: 35.8 µM | TGI [14]: > 100 µM | TGI [15]: > 100 µM | TGI [16]: > 62.5 µM | TGI [17]: > 100 µM | TGI [18]: 53.8 µM | TGI [19]: > 100 µM | TGI [20]: > 58.8 µM | TGI [21]: 44.5 µM | TGI [22]: > 57.1 µM | TGI [23]: > 100 µM | TGI [24]: > 100 µM | TGI [25]: 69 µM | TGI [26]: > 100 µM | TGI [27]: > 100 µM | TGI [28]: > 83.9 µM | TGI [29]: > 60.8 µM | TGI [30]: > 100 µM | TGI [31]: > 100 µM | TGI [32]: > 58.3 µM | TGI [33]: > 100 µM | TGI [34]: 1.99 µM | TGI [35]: 48.9 µM | TGI [36]: > 60.3 µM | TGI [37]: > 65.2 µM | TGI [38]: > 31.6 µM | TGI [39]: > 48.3 µM | TGI [40]: > 100 µM | TGI [41]: 39 µM | TGI [42]: 35.8 µM | TGI [43]: 27.5 µM | TGI [44]: > 100 µM | TGI [45]: > 100 µM | TGI [46]: > 100 µM | TGI [47]: 31.9 µM | TGI [48]: 50.8 µM | TGI [49]: > 100 µM | TGI [50]: > 100 µM | TGI [51]: 31.2 µM | TGI [52]: > 100 µM | TGI [53]: 28.2 µM | TGI [54]: > 79 µM | TGI [55]: 28 µM | TGI [56]: 45.2 µM | TGI [57]: 30.7 µM
